Data as given in patent US20230046904A1, “COMBINATION OF SMALL MOLECULE INHIBITOR OF THE PD-1/PD-L1 INTERACTION AND ANTI-PD-1 ANTIBODY FOR TREATING CANCER” (GUANGZHOU MAXINOVEL PHARMACEUTICALS CO., LTD., priority 2019, published 2023).

Assays:
[1] = test system: PD-L1 suppressed human T cells; experiment: Activation of T-Cell Suppressed by PD-L1 (co-culture with PD-L1 transfected Hep3B cells, IFN-γ readout); assay type: cell-based; conditions: dose-dependent; Keytruda as positive control
Source text: To measure the cellular activity of the compound, a protocol of Activation of T-Cell Suppressed by PD-L1 is used. In this protocol, human Hep3B cells are stably transfected with human PD-L1. The human T cells containing PD-1 are inactivated by co-culturing with these PD-L1 transfected cells. Then anti-PD-1 antibody Keytruda® (pembrolizumab) is selected as the reference to profile the compound for its activation of PD-L1 suppressed human T-cells. […] Keytruda is used as a positive control.

[2] = test system: B16F10 tumor cells (melanoma); experiment: Anti-tumor efficacy in the B16F10 model in C57BL/6 mice; assay type: in vivo; conditions: PO, BID
Procedure: Materials required for the experiment: Antibody: mouse PD-1 antibody, Product specifications: 7.09 mg/mL (50 mg/mL), Lot No.: 695318A1 purchased from BioXcell, storage at 4° C. Experimental animals 60 C57BL/6 mice, female, 6-8 weeks old, 17-21 g, purchased from Shanghai Lingchang Biotechnology Co. Ltd. Formulation materials: castor oil (Cremophor RH40), CAS No.: 61788-85-0, Lot No.: 29761847G0, purchased from Shanghai Xietai Chemical Co. Ltd.; β-cyclodextrin (SBE-β-CD), CAS No.: 128446-35-5, Lot No.: 20180110, purchased from Shanghai Shaoyuan Chemical Co. Ltd.; DMEM culture medium, Art. No.: 11995-065, Lot No.: 2025378, purchased from Gibco Co. Ltd.; PBS, Art. […]
Cell preparation and implantation: The B16-F10 tumor cells (ATCC CRL-6475™) are maintained in vitro as a monolayer culture in DMEM medium supplemented with 10% heat inactivated fetal bovine serum at 37° C. in an atmosphere of 5% CO2 in air. […] The cells growing to a confluency around 70%-80% are harvested and counted for tumor inoculation. […]
Procedure: The mice in the vehicle group are weighed and recorded in the electronic balance according to their numbers. […]
The mice in the antibody (10 mg/kg) group are weighed and recorded in the electronic balance according to their numbers. […]
The mice in the compound (30 mg/kg) group are weighed and recorded in the electronic balance according to their numbers. […]

4T1 tumor cells [3] = experiment: Anti-tumor efficacy of Compound 1 and Opdivo in the 4T1 humanized mouse model; assay type: in vivo; conditions: for TGI at day 13: p<0.0001
Procedure: (§1) 4T1 tumor cells (ATCC, CRL-2539™) are maintained in vitro as a monolayer culture in RPMI 1640 medium supplemented with 10% heat inactivated fetal bovine serum at 37° C. in an atmosphere of 5% CO2 in air. The tumor cells are routinely subcultured three times weekly by trypsin-EDTA treatment. Each mouse is inoculated subcutaneously at the fourth mammary pad with 1×10^5 in 0.05 mL base medium for tumor development.
Compound 1 plus Opdivo (nivolumab): 40 BALB/c mice are inoculated subcutaneously at the fourth mammary pad with 4T1 cells for tumor development. On the six days of post inoculation, the mice are assigned into 4 groups using stratified randomization with 10 mice in each group based upon their tumor volume. The treatments are started from the day of randomization, and the groups receive the following treatments:
Group 1: Vehicle control; Group 2: Opdivio, 10 mg/kg, i.p., BIW; Group 3: Compound 1, 60 mg/kg, p.o., BID and Group 4: Compound 1, 60 mg/kg, p.o., BID+Opdivio, 10 mg/kg, i.p., BIW respectively.
(§2) The tumor sizes are measured three times per week during the treatment.
The tumor growth inhibition effect of the combination of Compound 1 and Opdivo is examined. The tumor inhibition rate is calculated as:
TGI (%)=(1−(the volume of the tumor on the day of administration−the volume of the tumor on the first day of administration (treatment group))/(the volume of the tumor on the day of administration−the volume of the tumor on the first day (vehicle group)))×100%.

4T1 tumor cells [4] = experiment: Anti-tumor efficacy of Compound 1 and Keytruda in the 4T1 humanized mouse model; assay type: in vivo
Procedure: as §1
Compound 1 plus Keytruda (pembrolizumab): 40 BALB/c mice are inoculated subcutaneously at the fourth mammary pad with 4T1 cells for tumor development. On the six days of post inoculation, the mice were assigned into 4 groups using stratified randomization with 10 mice in each group based upon their tumor volume. The treatments were started from the day of randomization, and the groups receive the following treatments:
Group 1: Vehicle control; Group 2: Keytruda, 10 mg/kg, i.p., BIW; Group 3: Compound 1, 60 mg/kg, p.o., BID, and Group 4: Compound 1, 60 mg/kg, p.o., BID+Keytruda, 10 mg/kg, i.p., BIW respectively.
as §2
The tumor growth inhibition effect of the combination of Compound 1 and Keytruda is examined. The tumor inhibition rate is calculated as:
TGI (%)=(1−(the volume of the tumor on the day of administration−the volume of the tumor on the first day of administration (treatment group))/(the volume of the tumor on the day of administration−the volume of the tumor on the first day (vehicle group))×100%.

## Cc1c(/C=C/c2cc(CN[C@@](C)(CO)C(=O)O)ccc2C(F)(F)F)cccc1-c1ccccc1 [Compound 1]
[1]
  activation of PD-L1 suppressed human T cells, indicated by increase of cytokine IFN-γ: effectively restores the activation of the PD-L1 suppressed human T cells
[2]; C57BL/6 mice
  growth of subcutaneous transplanted melanoma cell line in mice: significantly inhibits the growth
[2]; up to 120 mg/kg
  tolerability in C57BL/6 mice: well tolerated in C57BL/6 mice without obvious adverse reactions
4T1 tumor cells [3]; 60 mg/kg, PO, BID
  TGI at day 13: 21.70%
4T1 tumor cells [4]; 60 mg/kg, PO, BID, p<0.0001
  TGI at day 10: 22.36%

## nivolumab [Opdivo]
4T1 tumor cells [3]; 10 mg/kg, IP, BIW
  TGI at day 13: 21.88%
4T1 tumor cells [3]; after the 5th dose of Opdivo at day 14, 10 mg/kg i.p. BIW, mice
  time after dosing within which mice are found dead: ≤ 1 h

## pembrolizumab [Keytruda]
4T1 tumor cells [4]; 10 mg/kg, IP, BIW, p>0.5
  TGI at day 10: 9.12%
4T1 tumor cells [4]; after the 4th dose of Keytruda at day 10, 10 mg/kg i.p. BIW, mice
  time after dosing within which mice are found dead: ≤ 1 h
